Read-outs that look alike come from different tables or passages of the source.

Series [1] has as its target T1, L. infantum TR (Leishmania infantum, UniProt A4HSF7).
T1 construct: made in house
Kind of series: Luminescence-based (NADPH-Glo) TR enzymatic assay. Type of series: biochemical. An excerpt:
(§1) L. infantum TR was cloned and purified as previously described.[9, 28] Bovine serum albumin (BSA), NADPH, auranofin, hGR, oxidized glutathione (GSSG) and DTNB were purchased from Sigma-Aldrich (St. Louis, MO); oxidized trypanothione (TS2) was purchased from Bachem (Bubendorf, Switzerland); the NADPH-Glo kit was purchased from Promega (Madison, WI, U.S.A.). Compounds, dissolved in DMSO, were transferred to 384-well white plates (Greiner Bio One, Frickenhausen, Germany) using the acoustic droplet ejection technology (ATS-100, EDC Biosystems, U.S.A.) to reach the desired final concentration. The TR enzymatic reaction was performed by addition of 0.1 nM TR, 12.5 μM NAPDH, 15 μM TS2 in 50 mM HEPES (pH 7.4), 40 mM NaCl, 0.01% BSA in a final volume of 15 μL. After 60 min of incubation at room temperature, an equal volume of NADPH-Glo reagent was added and the luminescent signal was acquired by an EnVision plate reader (PerkinElmer, Waltham, MA, U.S.A.). […] In addition, in order to make sure that the production of a reducing agent (i.e. T(SH)2) by the TR activity was not going to interfere with the assay, and in absence of T(SH)2 as purified reagent, the effect of DTT and GSH was tested on the NADPH-Glo reaction resulting in no interference at concentrations relevant for the current setup (S2 Fig). The hGR assay was performed by addition of 0.5 nM hGR, 10 μM GSSG, 20 μM NADPH in 50 mM HEPES (pH 7.4), 40 mM NaCl, 0.01% BSA in a final volume of 15 μL. After 30 min incubation at room temperature 15 μl of NADPH-Glo kit was added to reveal the signal. The 5,5′-dithiobis(2-nitrobenzoic acid) (DTNB) assay was performed using 2 nM TR, 100 μM NADPH, 4 μM TS2 and 200 μM DTNB in 40 mM HEPES (pH 7.4), 1 mM EDTA, 0.01% BSA and 0.05% tween-20 in a final volume of 50 μl. The absorbance signal (412 nm) was acquired 15 minutes post incubation at room temperature using the plate reader (Safire2, Tecan, Switzerland). Results were analyzed using Prism software (GraphPad, San Diego, CA, U.S.A.) and Vortex (Dotmatics, Bioshops Stortford, UK). Dose-response curves were fitted by four-parameter logistic regression.

Series [2] deals with T2, human glutathione reductase (hGR) (Homo sapiens, UniProt P00390).
T2 construct: purchased Sigma-Aldrich
T2 sequence (P00390 44-522): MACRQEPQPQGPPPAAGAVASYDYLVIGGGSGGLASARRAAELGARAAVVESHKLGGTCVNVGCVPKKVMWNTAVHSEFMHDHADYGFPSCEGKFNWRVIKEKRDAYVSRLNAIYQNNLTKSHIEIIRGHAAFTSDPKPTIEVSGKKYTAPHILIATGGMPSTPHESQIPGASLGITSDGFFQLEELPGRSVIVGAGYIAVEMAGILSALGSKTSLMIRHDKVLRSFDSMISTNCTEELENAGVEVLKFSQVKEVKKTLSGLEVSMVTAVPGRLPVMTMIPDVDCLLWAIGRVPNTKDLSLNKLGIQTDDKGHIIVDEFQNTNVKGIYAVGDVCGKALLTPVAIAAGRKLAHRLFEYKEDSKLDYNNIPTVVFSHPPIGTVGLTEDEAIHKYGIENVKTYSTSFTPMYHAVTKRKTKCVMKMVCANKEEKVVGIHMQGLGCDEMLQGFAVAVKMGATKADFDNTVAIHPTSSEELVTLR
Kind of series: hGR assay (NADPH-Glo). Type of series: biochemical. The following applies: for IC50: n=3.
From the text: as §1

Series [3] deals with L. infantum promastigotes. Kind of series: Inhibition of promastigote growth (MTT). Type of series: cell-based. The following applies: for IC50: Leishmania infantum, 72 h, MTT. The procedure: Promastigote (the extracellular stage of the Leishmania life cycle) growth inhibition was evaluated using L. infantum strain (MHOM/TN/80/IPT1). […] Promastigotes were grown in Schneider’s Drosophila medium (SIGMA) containing 10% Fetal Calf Serum (FCS) (GIBCO-BRL) and 2% gentamicin (50 mg/L) (Sigma) at 22°C. Parasites were adjusted to 1 × 10^6 parasites/mL, and 200 μL of suspension was seeded in triplicate in 96-well flat bottom microplates and incubated with varying concentrations of compound. […] Each experiment was done in triplicate for each drug concentration and two independent experiments were performed. After 72 h of incubation, 30 μL of MTT was added to each well and plates were further incubated for 2 h. The absorbance at 550 nm was measured with a 96-well scanner (DINEX Technologies, VA, USA). Anti-leishmanial activity per experimental point was expressed as mean percentage of inhibition with respect to vehicle treated parasites (0%). In addition, the promastigote vitality was followed by microscopic observation after 72 h. Data were analyzed and plotted by Prism (GraphPad, San Diego, USA).

Series [4] has as its target T1, L. infantum TR. Nature of the series: DTNB absorbance-based TR assay. Type of series: biochemical.
From the text: as §1, with “The 5,5′-dithiobis(2-nitrobenzoic acid) (DTNB) assay was performed using 2 nM TR, 100 μM NADPH, 4 μM TS2 and 200 μM DTNB in 40 mM HEPES (pH 7.4), 1 mM EDTA, 0.01% BSA and 0.05% tween-20 in a final volume of 50 μl.” left out

The target of series [5] is T3, TR (Leishmania infantum, UniProt A4HSF7).
T3 construct: made in house
T3 sequence (A4HSF7 1-491): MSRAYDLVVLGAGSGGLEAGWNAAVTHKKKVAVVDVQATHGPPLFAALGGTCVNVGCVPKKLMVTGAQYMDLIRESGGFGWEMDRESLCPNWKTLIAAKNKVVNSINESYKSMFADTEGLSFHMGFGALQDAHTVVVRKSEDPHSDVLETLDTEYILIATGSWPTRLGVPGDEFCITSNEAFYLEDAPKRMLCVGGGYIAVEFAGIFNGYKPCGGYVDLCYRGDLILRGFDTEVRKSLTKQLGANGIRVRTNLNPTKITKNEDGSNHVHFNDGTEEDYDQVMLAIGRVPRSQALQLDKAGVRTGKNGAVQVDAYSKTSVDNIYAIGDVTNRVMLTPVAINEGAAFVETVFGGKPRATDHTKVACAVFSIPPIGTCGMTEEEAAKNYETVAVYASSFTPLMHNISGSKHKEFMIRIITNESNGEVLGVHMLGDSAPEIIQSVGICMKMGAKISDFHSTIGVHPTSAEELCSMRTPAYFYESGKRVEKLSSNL
Also on record: method as in PMID 26033467. To be noted: read-out: TS2 Km; cited from earlier work.

Series [6] can be described thus: Solubility in assay buffer. To be noted: aqueous buffer. Type of series: physicochemical.
Series [7] has as its target T3, TR. Nature of the series: Competition assay with TS2 or NADPH. Type of series: biochemical. To be noted: 4, 16, 64 μM compound. The procedure:
Competition assays were performed using three test concentrations (4, 16 and 64 μM) for the competing compounds. The reaction buffer and components were mostly identical to those used in the TR assay described above, but 1 nM TR was employed for 5 minutes against a serial dilution of either TS2 in presence of 40 μM NADPH or NADPH in presence of 30 μM TS2. The residual amount of NADPH was measured using the NADPH-Glo kit (Promega, U.S.A.) after 30 min incubation at room temperature as per the manufacturer’s protocol. The luminescent signal was measured using the EnVision plate reader (PerkinElmer, USA). IC50, Vmax, and Km values were calculated using Prism software (GraphPad, San Diego, CA, U.S.A.).
The NADPH concentration for the TS2 dilutions was 40 μM while the TS2 concentration for the NADPH dilutions was 30 μM.

Series [8] deals with T3, TR. Nature of the series: Binding assay by SPR. The procedure: Surface plasmon resonance (SPR) interaction analysis was performed using a Biacore T200 (GE Healthcare, Uppsala, Sweden). TR was immobilized on a CM4 chip by amine coupling according to manufacturer’s instructions (Amine Coupling Kit, GE Healthcare, Uppsala, Sweden). Briefly, the surface of the sensor chip was activated for 7 min using a mixture of 0.1 M N-hydroxy succinimide (NHS) and 0.4 M N-ethyl-N’-[3-dimethyl-aminopropyl] carbodiimide (EDC) then 25 μg/mL of TR in 10 mM sodium acetate (pH 5.0) was injected for 360 s at 10 μl/min, finally residual activated groups on the surface were blocked by a 7-min injection of 1 M ethanolamine (pH 8.5). A reference channel for background subtraction was prepared by activation with EDC/NHS mixture (0.1 M/0.4 M as per ligand immobilization), followed by blocking with 1 M ethanolamine. The binding of the selected hit to the immobilized ligand was evaluated by a multi-cycle kinetic procedure in 50 mM HEPES pH 7.4, 40 mM NaCl, 0.05% Tween-20 supplemented with 2% DMSO (Sigma Aldrich). The analyte was injected for 20 s at 30 μl/min until equilibrium and dissociation monitored for 120 s. A standard curve of DMSO was included for solvent correction. Biomolecular binding events were reported as changes of resonance units (RUs) over time. The data were analysed by the Biacore T200 evaluation software: specific sensorgrams were obtained for the analyte, by subtracting the signals of the reference channel to those of the TR-immobilized one, and corrected for DMSO interference from DMSO standard curve. The binding affinity was evaluated at steady state whereas the kinetic parameters were calculated by a one-phase association and two-phase dissociation model using the Prism software (GraphPad, San Diego, CA, U.S.A.)
(In SPR one partner is held on a chip, and binding of the other changes the refractive index at the surface.)

Setting [9] is: Fig 5, read-out: IC50 (TR inhibition potency).

T1 sequence (A4HSF7 entry or part of it): as the sequence (A4HSF7 1-491) above

Consider `CN(C)C(=O)c1ccc(NCCC(=O)c2cc3ccccc3o2)cc1` [Compound 2], for which the IC50 at L. infantum TR [1] (setting [9]) is 13.3 ± 2.69 µM; on L. infantum TR [1] (n=3, read-out: TR assay IC50), 13.3 ± 2.69 µM; in series [2], 13.9 ± 3.5 µM. The “selectivity for TR with respect to hGR” value in series [2] is “not selective”.

For `C[C@@H]1[C@H](O)[C@@H](C)/C=C/C=C/C=C/C=C/C=C/C=C/C=C/[C@H](O[C@@H]2O[C@H](C)[C@@H](O)[C@H](N)[C@@H]2O)C[C@@H]2O[C@](O)(C[C@@H](O)C[C@@H](O)[C@H](O)CC[C@@H](O)C[C@@H](O)CC(=O)O[C@H]1C)C[C@H](O)[C@H]2C(=O)O` [Amphotericin B, reference compound], in series [3], the IC50 stood at 0.5 µM.

`CC(=O)OC[C@H]1O[C@@H]([S-])[C@H](OC(C)=O)[C@@H](OC(C)=O)[C@@H]1OC(C)=O.CCP(CC)CC.[Au+]` [Auranofin, reference compound]: the IC50 stood at 6.6 ± 1.05 µM on L. infantum TR [1] (dose-response, Fig 3D, read-out: potency, luminescent assay) and 0.154 ± 0.0107 µM at L. infantum TR [4] (dose-response, Fig 3D, read-out: potency, DTNB assay).

As to `O=C(N/N=C/c1ccc([N+](=O)[O-])s1)C1CC12CCC2` (stereo not drawn) [Compound 1], on L. infantum TR [1] (setting [9]), the IC50 stood at 1.76 ± 0.371 µM.

Regarding `N[C@@H](CCC(=O)N[C@@H](CS)C(=O)NCC(=O)NCCCCNCCCNC(=O)CNC(=O)[C@H](CS)NC(=O)CC[C@H](N)C(=O)O)C(=O)O` [TS2, N1,N8-bis(glutathionyl)spermidine], the Km (in general, the substrate concentration at which the rate is half of its maximum) on L. infantum TR [1] (luminescent assay, 0.5 nM TR, 12.5 μM NADPH, read-out: TS2 Km (apparent)) was 13.5 ± 3.8 µM; at TR [5] it was 23 ± 1 µM; on L. infantum TR [4] (DTNB assay, 20 nM TR, 100 μM NADPH, read-out: TS2 Km (apparent)), 3.6 ± 0.5 µM.

With `CCN(CC)CCOC(=O)c1ccc(NCCC(=O)c2ccc([N+](=O)[O-])cc2)cc1` [Compound 3, 2-(Diethylamino)ethyl 4-((3-(4-nitrophenyl)-3-oxopropyl)amino)benzoate], the promastigote mortality in series [3] (72 h after treatment, up to 100 μM) was 100%. Besides, the IC50 in series [3] was 12.4 ± 1.09 µM; at L. infantum TR [1] (setting [9]), 7.51 ± 2.53 µM; on L. infantum TR [1] (n=3, read-out: TR assay IC50), 7.52 ± 2.53 µM; at L. infantum TR [1] (read-out: Luminescence assay IC50 (in vitro potency, TR)), 7.5 ± 2.5 µM; on L. infantum TR [4] (read-out: DTNB IC50) it was 4 ± 0.9 µM; in series [2], > 85 µM. For the same compound, the solubility – broadly, the dissolved amount per volume that the medium holds – in series [6] was > 100 µM. For the same compound, at TR [7] (30 μM TS2), the “competition with NADPH” value is on record as “competitive for NADPH”. In addition, the “effect on TS2 Km” value on TR [7] (40 μM NADPH) is “did not alter TS2 Km”. The dissociation constant (Kd) (commonly the free concentration of one partner at which half of the binding sites on the other are occupied at equilibrium, for simple one-to-one binding) on TR [8] (Kd from kslow/kon ratio, kslow/kon) is 22.7 µM; on TR [8] (steady state, read-out: steady state calculated Kd), 28.3 ± 5.12 µM. For the same compound, the kon (commonly the second-order rate constant of association) on TR [8] (one-phase association model) was 3510 ± 1.09e+06 M⁻¹ s⁻¹. The same compound displayed a kfast at TR [8] (two-phase dissociation model) of 5.88 ± 0.96 s⁻¹. The compound further yielded a kslow on TR [8] (two-phase dissociation model) of 0.08 ± 0.02 s⁻¹. In addition, the “selectivity for TR with respect to hGR” value in series [2] is reported as “selective”.
